In US9643976B2, “Solvates of darunavir” (Aurobindo Pharma Ltd., priority 2012, dated 2017):

Experiments:
[1] = hygroscopicity at moderate or high relative humidity at 25° C.; assay type: physicochemical
Excerpt: Further, the isolation of Darunavir ethanolate involves special precautions during isolation, drying and powder processing, which is onerous during the large scale manufacturing of Darunavir ethanolate.

[2] = hygroscopic testing (solvent content before and after); conditions: for Final (Solvent content): after hygroscopic testing at 25° C.±2° C. and 80% RH±2° C. for 24 h, solvent replaced with water; for Initial (Solvent content): before hygroscopic testing

Structure (SMILES)	hygroscopicity / conversion to hydrate [1]	Final (Solvent content) [2] [%]	Initial (Solvent content) [2] [%]
CC(C)CN(C[C@@H](O)[C@H](Cc1ccccc1)NC(=O)O[C@H]1CO[C@H]2OCC[C@H]21)S(=O)(=O)c1ccc(N)cc1 [Darunavir ethanolate]	hygroscopic and converts to Darunavir hydrate	0.67	6.75
CC(C)CN(C[C@@H](O)[C@H](Cc1ccccc1)NC(=O)O[C@H]1CO[C@H]2OCC[C@H]21)S(=O)(=O)c1ccc(N)cc1 [Darunavir propylene glycolate]	–	10.37	11.51
